Assay results: ChEMBL document CHEMBL1137783 (J Med Chem, 2009)

target: T1, hERG (KCNH2) (Homo sapiens, UniProt Q12809); test: Inhibition of human ERG channel at 3 uM; settings: not given
T1 sequence (Q12809 whole entry): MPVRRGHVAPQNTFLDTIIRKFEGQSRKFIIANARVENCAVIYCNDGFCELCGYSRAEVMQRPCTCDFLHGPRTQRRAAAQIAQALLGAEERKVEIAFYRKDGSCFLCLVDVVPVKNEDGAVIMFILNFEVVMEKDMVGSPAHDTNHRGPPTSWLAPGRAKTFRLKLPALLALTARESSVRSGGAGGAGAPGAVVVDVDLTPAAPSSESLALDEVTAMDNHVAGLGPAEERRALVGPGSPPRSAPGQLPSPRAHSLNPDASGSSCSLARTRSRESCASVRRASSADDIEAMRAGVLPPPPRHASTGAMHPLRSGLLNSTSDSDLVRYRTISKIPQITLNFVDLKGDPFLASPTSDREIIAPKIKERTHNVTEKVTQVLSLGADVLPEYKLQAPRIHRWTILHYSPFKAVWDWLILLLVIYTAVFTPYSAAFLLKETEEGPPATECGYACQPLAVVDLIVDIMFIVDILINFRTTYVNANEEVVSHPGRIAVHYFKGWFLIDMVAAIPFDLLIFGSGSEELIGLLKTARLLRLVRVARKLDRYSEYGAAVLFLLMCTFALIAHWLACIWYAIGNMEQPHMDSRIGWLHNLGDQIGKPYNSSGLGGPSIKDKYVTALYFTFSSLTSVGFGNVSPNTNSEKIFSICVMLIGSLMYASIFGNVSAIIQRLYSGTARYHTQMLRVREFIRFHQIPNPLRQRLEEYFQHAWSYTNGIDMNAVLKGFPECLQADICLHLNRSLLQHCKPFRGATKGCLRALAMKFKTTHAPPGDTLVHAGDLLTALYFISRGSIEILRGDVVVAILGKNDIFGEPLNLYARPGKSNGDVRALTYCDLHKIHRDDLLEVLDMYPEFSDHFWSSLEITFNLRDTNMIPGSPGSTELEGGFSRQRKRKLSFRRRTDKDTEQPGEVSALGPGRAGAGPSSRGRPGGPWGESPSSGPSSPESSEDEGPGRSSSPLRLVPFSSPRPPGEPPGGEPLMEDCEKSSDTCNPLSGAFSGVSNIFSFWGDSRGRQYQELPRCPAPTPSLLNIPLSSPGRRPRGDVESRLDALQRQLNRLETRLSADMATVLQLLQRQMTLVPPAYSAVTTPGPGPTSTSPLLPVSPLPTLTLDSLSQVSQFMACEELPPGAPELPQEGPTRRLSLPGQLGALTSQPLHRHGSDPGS

Row | Compound | inhibition at 3 µM [%]
1 | CC(C)(CO)NC(=O)[C@H]1CC[C@H](c2nc(-c3cccc(C(F)(F)F)c3)c[nH]2)CC1 | 6

target: T1, hERG (KCNH2); test: Inhibition of human ERG channel at 300 uM; settings: not given

Row | Compound | inhibition at 300 µM [%]
2 | Cc1nnc(C(C)C)n1C1CC2CCC(C1)N2CC[C@H](NC(=O)C1CCC1)c1ccccc1 (some centres undefined) | 30
3 | Cc1nnc(C(C)C)n1C1CC2CCC(C1)N2CC[C@H](NC(=O)C1CCCC1)c1ccccc1 (some centres undefined) | 18
4 | Cc1nnc(C(C)C)n1C1CC2CCC(C1)N2CC[C@H](NC(=O)CCC(F)(F)F)c1ccccc1 (some centres undefined) | 14

target: Voltage-gated inwardly rectifying potassium channel KCNH2 (Homo sapiens, UniProt Q12809); test: (§1) Inhibition of human ERG channel; settings: not given
Sequence (Q12809 whole entry): as above

Row | Compound | IC50 [µM] | Ki [µM]
5 | C[N+]1([O-])CCN(C2=Nc3cc(Cl)ccc3Nc3ccccc32)CC1 | 133 | –
6 | CN1Cc2cncn2Cc2ccc(C#N)c(c2)Oc2ccc3c(c2)[C@@H](CC3)N2CC[C@@H]1C2=O | 2.6 | –
7 | Fc1ccc2[nH]c(-c3ccccc3)c([C@@H]3CNCC[C@H]3F)c2c1 | – | 7
8 | c1ccc(-c2[nH]c3ccccc3c2C2CC3CCC(C2)N3)cc1 (centres undefined) | – | 0.018
9 | CC(=O)Nc1cccc(N2CCN(CCCCNS(=O)(=O)CC3CCCCC3)CC2)c1 [NALUZOTAN] | 3.8 | –
10 | Cc1cc2c(s1)Nc1ccccc1N=C2N1CCN(C)CC1 [OLANZAPINE] | 0.231 | –

same assay, conditions: human

Row | Compound | pIC50
11 | C[N+]1([O-])CCN(C2=Nc3cc(Cl)ccc3Nc3ccccc32)CC1 | 3.875
12 | Cc1cc2c(s1)Nc1ccccc1N=C2N1CCN(C)CC1 [OLANZAPINE] | 6.636

target: T1, hERG (KCNH2); test: as §1; settings: human

Row | Compound | Ki [nM]
13 | c1ccc(-c2[nH]c3ccccc3c2C2CCNCC2)cc1 | 5700
14 | Fc1ccc(-c2[nH]c3cc(F)ccc3c2C2CCCNC2)cc1 (centres undefined) | 1300
15 | CN1CCCC(c2c(-c3ccccc3)[nH]c3ccccc23)C1 (centres undefined) | 9600
16 | Fc1ccc2c([C@@H]3CNCC[C@H]3F)c(-c3cccc4ccccc34)[nH]c2c1 | 110
17 | Fc1ccc2c([C@@H]3CNCC[C@H]3F)c(-c3ccc4ccccc4c3)[nH]c2c1 | 500
18 | Fc1ccc2c([C@@H]3CNCC[C@H]3F)c(-c3ccsc3)[nH]c2c1 | 1500
19 | Fc1ccc(-c2[nH]c3cc(F)ccc3c2[C@@H]2CNCC[C@H]2F)cc1 | 1600
